From patent publication US20260070902A1, “SULFONYL DERIVATIVES AS CCR6 INHIBITORS” (Hoffmann-La Roche Inc., priority 2022, published 2026)

Assays:
human CCR6 [1] = target: T1, human CCR6 (Homo sapiens, UniProt P51684); experiment: CHO-K1 CCR6 chemotaxis assay towards CCL20; assay type: cell-based; details: relative -Log IC50; CHO-K1 cells overexpressing human CCR6; migration towards 100 ng/ml CCL20; 4 h
T1 sequence (P51684 1-374): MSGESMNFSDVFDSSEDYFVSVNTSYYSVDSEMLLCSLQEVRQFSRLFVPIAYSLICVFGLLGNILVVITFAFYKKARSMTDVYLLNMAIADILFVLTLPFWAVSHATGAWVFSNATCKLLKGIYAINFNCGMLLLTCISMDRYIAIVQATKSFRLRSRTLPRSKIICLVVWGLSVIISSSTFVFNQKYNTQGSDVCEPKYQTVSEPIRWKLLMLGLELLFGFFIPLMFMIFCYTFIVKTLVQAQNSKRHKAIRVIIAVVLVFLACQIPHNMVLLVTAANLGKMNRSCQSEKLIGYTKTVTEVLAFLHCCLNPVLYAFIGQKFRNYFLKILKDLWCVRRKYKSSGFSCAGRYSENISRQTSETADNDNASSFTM
From the text: CHO-K1 CCR6 Chemotaxis Assay Towards CCL20
Cells overexpressing human CCR6 were used in the chemotaxis assay (DiscoverX, cAMP Hunter™ CHO-K1 CCR6 Gi Cell Line). Growth medium of these cells consisted of DMEM/F12, non-essential Amino acids (1×NEAA, Gibco 11140050), 10% FBS and 1× pen/strep (Gibco 15140). For the chemotaxis assay, Corning Transwell plates were used with a pore size of 8 m (Corning 351164). Cells were harvested using trypsin and diluted to 4*10^6 cells/ml in chemotaxis medium (DMEM, 0.25% BSA, pen/strep). Compounds were four-fold serially diluted in DMSO. Further dilutions were made in chemotaxis medium. Cells were incubated with test compounds for 30 min at 37° C. prior to initiation of the assay (2*10^6 cells/ml). Final DMSO concentration in the assay was 0.2%. Wells of the Transwell plates were filled with 200 μl chemotaxis medium containing 100 ng/ml CCL20 (R&D systems 360-MP). 50 μl of the cell/compound suspension was added to the inserts of the Transwell plates (100,000 cells/insert). The Transwell plates were placed in an incubator at 37° C., 5% CO2 for 4 h. After 4 h, the number of migrated cells was quantified using CellTiter Glo (Promega). Percentage inhibition values were calculated based on the low and high signal obtained with 0.2% DMSO in chemotaxis medium without and with CCL20, respectively. The relative −Log IC50 was determined with GraphPad Prism 9 using a four-parameter dose-response model.

human CCR6 [2] = target: T1, human CCR6; experiment: Human CCR6-CRE reporter assay; assay type: cell-based; set-up: The second construct contained the open reading frame of human CCR6 in the pUNO1 backbone; host or cells: 293FT cells; details: relative -Log IC50; 293FT cells transfected with human CCR6 and CRE-luciferase reporter; 6 μM Forskolin, 6 nM CCL20; 5 h
Experimental: Human CCR6-CRE Reporter Assay
293FT cells were transfected with 2 constructs using TransIT-293 (Mirus). The first construct (pGL4.29, Promega) expressed the luciferase reporter gene luc2P in response to the binding of cAMP-induced CREB to the CREelement in its promoter. The second construct contained the open reading frame of human CCR6 in the pUNO1 backbone under the control of an enhanced CMV promoter (InVivoGen). 48 h after transfection, cells were harvested and diluted to 750,000 cells/ml in culture medium (DMEM, 10% FBS, 1× pen/strep (Gibco 15140)). Compounds were 2.5-fold serially diluted in DMSO. Further dilutions were made in assay medium (DMEM, 10% FBS, 1× pen/strep, 6 μM Forskolin, 6 nM CCL20). 4 μl of the compound solution was added to a white MW384 plate, followed by 20 μl of the cell suspension. Final DMSO concentration in the assay was 0.1%. The MW384 plate was placed in an incubator at 37° C., 5% CO2 for 5 h. Luciferase activity was determined by addition of 24 μl of a 2.5× diluted BriteLite luciferase solution (Perkin Elmer), followed by luminescence measurement using a VICTOR Plate reader (Perkin Elmer). […] The relative −Log IC50 was determined with GraphPad Prism 9 using a four-parameter dose-response model.

| Structure (SMILES) | IC50 (human CCR6 [1]) [µM] | IC50 (human CCR6 [2]) [µM] |
| --- | --- | --- |
| CC(C)c1cnc2ccc(-c3ccc(S(=N)(=O)[C@H]4CC[C@H](Nc5ccc(S(F)(F)(F)(F)F)cc5)CC4)cc3)cn12 (relative stereo) [Example 118, {4-[3-(propan-2-yl)imidazo[1,2-a]pyridin-6-yl]phenyl}[trans-4-{[4-(pentafluoro-λ^6-sulfanyl)phenyl]Amino}cyclohexyl](imino)-λ^6-sulfanone] | 0.398 | 0.0794 |
| N#Cc1c[nH]c2ccc(-c3ccc(S(=N)(=O)[C@H]4CC[C@H](Nc5ccc(S(F)(F)(F)(F)F)cc5)CC4)cc3)cc12 (single isomer, unassigned; (+)) [Example 126, (+)-5-(4-{[trans-4-{[4-(pentafluoro-λ^6-sulfanyl)phenyl]Amino}cyclohexyl]sulfonimidoyl}phenyl)-1H-indole-3-carbonitrile] | 0.126 | 0.126 |
| N=S(=O)(c1ccc(-c2ccc3nccn3c2)cc1)[C@H]1CC[C@H](Nc2ccc(S(F)(F)(F)(F)F)cc2)CC1 (single isomer, unassigned; (+)) [Example 128, (+)-(4-{imidazo[1,2-a]pyridin-6-yl}phenyl)[trans-4-{[4-(pentafluoro-λ^6-sulfanyl)phenyl]Amino}cyclohexyl](imino)-λ^6-sulfanone] | 0.251 | 0.126 |
| N#Cc1c[nH]c2ccc(-c3ccc(S(=N)(=O)[C@H]4CC[C@H](Nc5ccc(S(F)(F)(F)(F)F)cc5)CC4)cc3)cc12 (single isomer, unassigned; (-)) [Example 127, (−)-5-(4-{[trans-4-{[4-(pentafluoro-λ^6-sulfanyl)phenyl]Amino}cyclohexyl]sulfonimidoyl}phenyl)-1H-indole-3-carbonitrile] | 0.251 | 0.316 |
| N=S(=O)(c1ccc(-c2ccc3nccn3c2)cc1)[C@H]1CC[C@H](Nc2ccc(S(F)(F)(F)(F)F)cc2)CC1 (single isomer, unassigned; (-)) [Example 129, (−)-(4-{imidazo[1,2-a]pyridin-6-yl}phenyl)[trans-4-{[4-(pentafluoro-λ^6-sulfanyl)phenyl]Amino}cyclohexyl](imino)-λ^6-sulfanone] | 0.316 | 0.2 |
| NC(=O)c1cc(-c2ccc(S(=O)(=O)N3CC[C@H](Nc4ccc(S(F)(F)(F)(F)F)cc4)[C@@H](F)C3)cc2)ccn1 (stereo in doubt) [Example 83, 4-(4-{[(3S,4S)-3-fluoro-4-{[4-(pentafluoro-λ^6-sulfanyl)phenyl]Amino}piperidin-1-yl]sulfonyl}phenyl)pyridine-2-carboxamide] | 0.0501 | 0.316 |
| O=S(=O)(c1ccc(-c2ccc3nccn3c2)cc1)N1CCC(Nc2ccc(S(F)(F)(F)(F)F)cc2)CC1 [Example 1, 1-(4-{imidazo[1,2-a]pyridin-6-yl}benzenesulfonyl)-N-[4-(pentafluoro-λ^6-sulfanyl)phenyl]piperidin-4-amine] | 0.0794 | 0.126 |
| Cc1cnc2ccc(-c3ccc(S(=O)(=O)[C@H]4CC[C@H](Nc5ccc(S(F)(F)(F)(F)F)cc5)CC4)cc3)cn12 [Example 13, 4-(pentafluoro-λ^6-sulfanyl)-N-[trans-4-(4-{3-methylimidazo[1,2-a]pyridin-6-yl}benzenesulfonyl)cyclohexyl]aniline] | 0.00501 | 0.0794 |
| O=C1Cc2cc(-c3ccc(S(=O)(=O)[C@H]4CC[C@H](Nc5ccc(S(F)(F)(F)(F)F)cc5)CC4)cc3)ccc2N1 [Example 14, 5-(4-{[trans-4-{[4-(pentafluoro-λ^6-sulfanyl)phenyl]Amino}cyclohexyl]sulfonyl}phenyl)-2,3-dihydro-1H-indol-2-one] | 1.26 | 0.2 |
| CN(C)C(=O)c1ccc(-c2ccc(S(=O)(=O)[C@H]3CC[C@H](Nc4ccc(S(F)(F)(F)(F)F)cc4)CC3)cc2)cc1 [Example 15, N,N-dimethyl-4′-{[trans-4-{[4-(pentafluoro-λ^6-sulfanyl)phenyl]Amino}cyclohexyl]sulfonyl}-[1,1′-biphenyl]-4-carboxamide] | 0.0631 | 0.0794 |
| CNC(=O)c1ccc(-c2ccc(S(=O)(=O)[C@H]3CC[C@H](Nc4ccc(S(F)(F)(F)(F)F)cc4)CC3)cc2)cc1 [Example 16, N-methyl-4′-{[trans-4-{[4-(pentafluoro-λ^6-sulfanyl)phenyl]Amino}cyclohexyl]sulfonyl}-[1,1′-biphenyl]-4-carboxamide] | 0.0126 | 0.0631 |
| O=C(NC1CC1)c1cccc(-c2ccc(S(=O)(=O)[C@H]3CC[C@H](Nc4ccc(S(F)(F)(F)(F)F)cc4)CC3)cc2)c1 [Example 144, N-cyclopropyl-4′-{[trans-4-{[4-(pentafluoro-λ^6-sulfanyl)phenyl]amino}cyclohexyl]sulfonyl}-[1,1′-biphenyl]-3-carboxamide] | – | 0.0501 |
| O=S(=O)(c1ccc(-c2ncc3[nH]ccc3n2)cc1)[C@H]1CC[C@H](Nc2ccc(S(F)(F)(F)(F)F)cc2)CC1 [Example 145, 4-(pentafluoro-λ^6-sulfanyl)-N-[trans-4-(4-{5H-pyrrolo[3,2-d]pyrimidin-2-yl}benzenesulfonyl)cyclohexyl]aniline] | – | 1.58 |
| O=S(=O)(c1ccc(-c2cc3cc[nH]c3cn2)cc1)[C@H]1CC[C@H](Nc2ccc(S(F)(F)(F)(F)F)cc2)CC1 [Example 146, 4-(pentafluoro-λ^6-sulfanyl)-N-[trans-4-(4-{1H-pyrrolo[2,3-c]pyridin-5-yl}benzenesulfonyl)cyclohexyl]aniline] | – | 0.794 |
| Cc1cc(-c2ccc(S(=O)(=O)[C@H]3CC[C@H](Nc4ccc(S(F)(F)(F)(F)F)cc4)CC3)cc2)cn2ccnc12 [Example 149, 4-(pentafluoro-λ^6-sulfanyl)-N-[trans-4-(4-{8-methylimidazo[1,2-a]pyridin-6-yl}benzenesulfonyl)cyclohexyl]aniline] | – | 0.0631 |
| O=S(=O)(c1ccc(-c2ccc3nnc([C@@H]4CCNC4)n3c2)cc1)N1CCC(Nc2ccc(S(F)(F)(F)(F)F)cc2)CC1 [Example 165, N-[4-(pentafluoro-λ^6-sulfanyl)phenyl]-1-(4-{3-[(3R)-pyrrolidin-3-yl]-[1,2,4]triazolo[4,3-a]pyridin-6-yl}benzenesulfonyl)piperidin-4-amine] | – | 0.794 |
| O=S(=O)(c1ccc(-c2ccc3nnc([C@H]4CCNC4)n3c2)cc1)N1CCC(Nc2ccc(S(F)(F)(F)(F)F)cc2)CC1 [Example 166, N-[4-(pentafluoro-λ^6-sulfanyl)phenyl]-1-(4-{3-[(3S)-pyrrolidin-3-yl]-[1,2,4]triazolo[4,3-a]pyridin-6-yl}benzenesulfonyl)piperidin-4-amine] | – | 0.794 |
| CC(C)c1nnc2ccc(-c3ccc(S(=N)(=O)[C@H]4CC[C@H](Nc5ccc(S(F)(F)(F)(F)F)cn5)CC4)cc3)cn12 (stereo partly drawn) [Example 171, {4-[3-(propan-2-yl)-[1,2,4]triazolo[4,3-a]pyridin-6-yl]phenyl}[trans-4-{[5-(pentafluoro-λ^6-sulfanyl)pyridin-2-yl]amino}cyclohexyl](imino)-λ^6-sulfanone] | – | 0.1 |
| Cc1cc(-c2ccc(S(=O)(=O)[C@H]3CC[C@H](Nc4ccc(S(F)(F)(F)(F)F)cn4)CC3)cc2)cn2c(C(C)C)nnc12 [Example 181, 5-(pentafluoro-λ^6-sulfanyl)-N-[trans-4-{4-[8-methyl-3-(propan-2-yl)-[1,2,4]triazolo[4,3-a]pyridin-6-yl]benzenesulfonyl}cyclohexyl]pyridin-2-amine] | – | 0.0251 |
